Results taken from patent publication US20090305963A1, “Lipocalin 2 for the Treatment, Prevention, and Management of Cancer Metastasis, Angiogenesis, and Fibrosis” (priority 2005, published 2009).
Counter-ions that a name gives are not always drawn. Where a SMILES comes first, the peptide text is derived from it. The star is where a group is joined. Cbz = O=C(OCc1ccccc1)*

How the values were obtained:
E-cadherin [1] = assay: EMT phenotype, E-cadherin and vimentin protein in 4T1 clones (microscopy, western blot); assay type: cell-based, mouse; conditions: for rank order of effect on R cell epithelial morphology and E-cadherin expression: R cells, 15 or 50 μg/ml, dose dependent
Source text: (§1) Cells were stained as described previously (Mammoto et al., Cancer Lett. 184:165-170, 2002) and images acquired with a Delta Vision system (Applied Precision, Issaquah, Wash.) equipped with an Axiovert 100 microscope (Carl Zeiss MicroImaging Inc., Shelton, Conn.) and a Photometrics 300 series scientific-grade cooled CCD camera, reading 12-bit images, and using the 63/1.4 NA plan-Neofluar objective. For immunoprecipitation and immunoblotting, tissues were weighed, diced, soaked in ice cold RIPA buffer with 1 mM phenylmethylsulfonyl fluoride (PMSF), 1 μg/ml Aprotinin, 1 mM Na3VO4, 1 nM NaF, homogenized on ice, centrifuged at 10,000 g for 10 minutes at 4° C., and the supernatant fluid collected as total cell lysate. Cultured cells were washed, scraped, and solubilized in a lysis buffer containing 20 mM Tris-HCl pH 7.5, 150 mM NaCl, 0.5% Triton X-100, 1% aprotinin, and 1 mM PMSF. After 20 minutes on ice, the cells were pelleted by centrifugation and the supernatants were used as a cell lysate. Cell lysates or immunoprecipitated cell lysates were separated by PAGE (NuPAGE® gels; Invitrogen, Carlsbad, Calif.), followed by electroblotting onto a polyvinylidenedifluoride membrane (PVDF). Protein bands were detected using SuperSignal® West Pico Chemiluminescent Substrate (Pierce Chemical Co., Rockford, Ill.) (Hanai et al., J. Cell. Biol. 158:529-539, 2002).
To assess the effects of lipocalin 2 on ras-mediated transformation, we chose a syngeneic spontaneously metastasizing murine breast cancer model (4T1 cell line) and accelerated its metastatic potential by introduction of constitutively active mouse H-ras mutant A12 using retrovirus. […] We generated stable clones of 4T1-ras cells expressing lipocalin 2 (RL) by transfection of a lipocalin 2 expression plasmid (lipocalin 2-pcDNA3.1). […] (FIG. 2A, lower panel, and FIG. 2B). […] Expression of E-cadherin in RL cells was dependent on the dose of lipocalin 2-pcDNA3.1 expression vector (transiently introduced in a population of R cells), on a conditioned medium containing lipocalin 2 (FIGS. 2D-E), as well as on recombinant lipocalin 2 protein. R cells shown in FIG. 2D were seeded in a 6-well plate and transfected with lipocalin 2 by FuGene 6 at 40% confluency. After 48 hours, cells were trypsinized, respread on 6-well plate, and transfected again in the same conditions. After 72 hours, cells were harvested and analyzed by western blotting. EV cells in FIG. 2E were seeded in a 6-well plate with 1 ml/well containing 10% FCS with DMEM and 2 ml of CM was added at 10% confluency. After 72 hours, cells were harvested and analyzed by western blotting. CM is a mixture of media from 293T cells transfected with lipocalin 2 and from 293 cells transfected with empty vector (pcDNA3.1).

E-cadherin [2] = assay: Induction of E-cadherin in embryonic mesenchyme; assay type: cell-based, rat; conditions: enterochelin siderophore complex with gallium instead of iron
VEGF = assay: Measurement of VEGF levels by ELISA in conditioned media of 4T1 cells; assay type: cell-based, mouse; conditions: R cells; 2 days of incubation; dose dependent
Method: Conditioned media of 4T1 cells were collected after 2 days of incubation. Murine VEGF levels were determined in duplicate using a commercially available sandwich ELISA kit (R&D Systems, Minneapolis, Minn.), with a affinity purified polyclonal antibody specific for mouse VEGF has been pre-coated onto a microplate. Results were compared with a standard curve of mouse VEGF with a lower detection limit of 7 pg/mL. A model 680 microplate-reader (Bio-Rad Laboratories, CA) was used to measure light intensity correlating with VEGF binding.

E-cadherin [3] = assay: E-cadherin phosphorylation (immunoprecipitation and western blot); assay type: cell-based, mouse; conditions: R cells vs RL cells or R cells with inhibitor
Source text: as §1

[4] = system: serum-response element (SRE); assay: SRE-luciferase assay; assay type: cell-based, mouse
Method: After transient transfection of the plasmids, cells were incubated for 20 hours in 10% FCS and luciferase activity in the cell lysates was determined using a luminometer normalized by sea-pansy luciferase activity under the control of the thymidine kinase promoter. The Dual-Luciferase Reporter Assay System was purchased from Promega (Madison, Wis.) (Hanai et al., J. Biol. Chem. 277:16464-16469, 2002).
For these experiments, EV and R cells were starved in DMEM without serum for 48 hours. During this time, half of the R cells were incubated with 50 μg/ml of lipocalin 2 protein with iron-loaded siderophore (R+Lipo:Sid:Fe), after which all cells were incubated with 10% FCS containing DMEM for 20 minutes and then harvested for western blotting with phosphospecific antibodies. Signaling events downstream of ERK activation were then monitored with a multi-copy serum-response element (SRE)-luciferase construct introduced into EV, R, and RL (FIG. 6B). For these experiments, an SRE-luciferase assay was performed on 4T1 clones after the 48 hour incubation in serum free DMEM. […] Just like R cells treated with exogenous protein (FIG. 6A), R cells infection with recombinant adenovirus carrying lipocalin 2, but not GFP, reduced SRE-luciferase activity, MEK, and ERK1/2 phosphorylation, without altering ras expression.
To localize the effect of lipocalin on ras-MAPK signaling, we utilized an adenovirus and expression plasmid encoding a constitutively active MEK (MEK-DD) (Murakami et al., Cell Growth Differ 10:333-342, 1999). MEK-DD adenoviral infection of EV cells led to increased SRE-luciferase activity (increased MAPK activity). […] RL cells in a 6-well plate were infected with an adenovirus carrying the MEK dominant active form (MEK-DD) and a Lac-Z adenovirus at the indicated multiplicities (MOI) in 2% serum including DMEM medium for 48 hours. Cells were then trypsinized, respread on 6-well plate at 5-10% confluency, and incubated with 10% serum including DMEM medium. Cell lysates were collected for western blotting 48 hours after the final plating (FIG. 6D). […]

raf, MEK, and ERK1/2 = assay: Western blots with phosphospecific antibodies for ras-MAPK signaling molecules; assay type: cell-based, mouse; conditions: R cells
Source text: as §1, with “After 20 minutes on ice, the cells were pelleted by centrifugation and the supernatants were used as a cell lysate. Cell lysates or immunoprecipitated cell lysates were separated by PAGE (NuPAGE® gels; Invitrogen, Carlsbad, Calif.), followed by electroblotting onto a polyvinylidenedifluoride membrane (PVDF).” left out
For these experiments, EV and R cells were starved in DMEM without serum for 48 hours. […] Signaling events downstream of ERK activation were then monitored with a multi-copy serum-response element (SRE)-luciferase construct introduced into EV, R, and RL (FIG. 6B). […]

Q: How did the “E-cadherin protein in EV cells” value (E-cadherin [1]; 0.5 nM for 2 days) turn out when `CC(C)C[C@@H](C=O)NC(=O)[C@H](CC(C)C)NC(=O)[C@H](CC(C)C)NC(=O)OCc1ccccc1` [MG132] (Cbz-Leu-Leu-Leu-aldehyde) was run?
A: increased E-cadherin protein

Q: What about the “E-cadherin protein in R cells” value (E-cadherin [1]; 0.5 nM for 2 days) of the same molecule?
A: increased E-cadherin protein

Q: What about the “E-cadherin protein in RL cells” value (E-cadherin [1]; 0.5 nM for 2 days) of the same molecule?
A: only slightly increased E-cadherin

Q: What about the “phenotype of R cells” value (E-cadherin [1]; 0.5 nM for 48 hours) of the same molecule?
A: reverted R cells to an epithelial phenotype

Q: For `CC(=O)N(O)CCCCCNC(=O)CCC(=O)N(O)CCCCCNC(=O)CCC(=O)N(O)CCCCCN` [DFO, Deferoxamine mesylate], which “E-cadherin expression in RL cells” value (E-cadherin [1]; 2-5 μM, 48 hours) is on record?
A: suppressed E-cadherin expression

Q: And the “morphology of RL cells” value (E-cadherin [1]; 2-5 μM, 48 hours)?
A: changed the morphology of RL cells to a mesenchymal phenotype

Q: `[Ga]` [gallium] was tested. Which “induction of E-cadherin in mesenchyme when iron is substituted” value (E-cadherin [2]) did it give?
A: greatly diminished

Q: For `O=c1cc(N2CCOCC2)oc2c(-c3ccccc3)cccc12` [LY294002], which “maximum inhibition of VEGF production, each inhibitor alone” value (VEGF) is on record?
A: approximately 50%

Q: Which results are given for `N#CC(=C(/N)Sc1ccccc1N)/C(C#N)=C(\N)Sc1ccccc1N` [U0126]?
A: maximum inhibition of VEGF production, each inhibitor alone (VEGF): approximately 50%; effect on ras-induced EMT (E-cadherin [1]): reversed ras-induced EMT; E-cadherin phosphorylation (E-cadherin [3]): markedly downregulated

Q: With `O=S(=O)([O-])[O-].O=S(=O)([O-])[O-].[Fe+3].[NH4+]` [ferric ammonium sulfate] as the molecule, how does the “phenotype of R cells after adding iron” value (E-cadherin [1]; 50 μM) read?
A: did not change their phenotype

B1: Lipo:Sid:Fe: recombinant mouse lipocalin 2 mixed with iron-loaded bacterial siderophore enterochelin (protein, UniProt P11672 21-200, looked up)
Neutrophil …: QDSTQNLIPAPSLLTVPLQPDFRSDQFRGRWYVVGLAGNAVQKKTEGSFTMYSTIYELQENNSYNVTSILVRDQDQGCRYWIRTFVPSSRAGQFTLGNMHRYPQVQSYNVQVATTDYNQFAMVFFRKTSENKQYFKITLYGRTKELSPELKERFTRFAKSLGLKDDNIIFSVPTDQCIDN
modifications: iron-loaded enterochelin siderophore complex
notes: recombinant mouse lipocalin 2 mixed with iron-loaded bacterial siderophore enterochelin
Q: Which results are given for B1?
A: rank order of effect on R cell epithelial morphology and E-cadherin expression (E-cadherin [1]): Lipo:Sid:Fe>Lipo:Sid>Lipo; SRE-luciferase activity induced by CA-H-ras ([4]; EV cells transfected with H-ras V12): downregulated SRE-luciferase activity; inhibition of MEK-DD induced SRE-luciferase activity ([4]; EV cells transfected with MEK-DD): unable to inhibit this effect; total ras expression (raf, MEK, and ERK1/2; 50 μg/ml for 48 hours): unchanged; ras induced phosphorylation of raf, MEK, and ERK1/2 (raf, MEK, and ERK1/2; 50 μg/ml for 48 hours serum free, then 10% FCS 20 minutes): largely abrogated

B2: Lipo: recombinant mouse lipocalin 2 protein expressed in E. coli BL21, without siderophore (protein, UniProt P11672 21-200, looked up)
Neutrophil …: QDSTQNLIPAPSLLTVPLQPDFRSDQFRGRWYVVGLAGNAVQKKTEGSFTMYSTIYELQENNSYNVTSILVRDQDQGCRYWIRTFVPSSRAGQFTLGNMHRYPQVQSYNVQVATTDYNQFAMVFFRKTSENKQYFKITLYGRTKELSPELKERFTRFAKSLGLKDDNIIFSVPTDQCIDN
Q: Which “rank order of effect on R cell epithelial morphology and E-cadherin expression” value (E-cadherin [1]) does the source give for B2 here?
A: Lipo:Sid:Fe>Lipo:Sid>Lipo

B3: Lipo:Sid: recombinant mouse lipocalin 2 mixed with iron-unloaded bacterial siderophore enterochelin (protein, UniProt P11672 21-200, looked up)
Neutrophil …: QDSTQNLIPAPSLLTVPLQPDFRSDQFRGRWYVVGLAGNAVQKKTEGSFTMYSTIYELQENNSYNVTSILVRDQDQGCRYWIRTFVPSSRAGQFTLGNMHRYPQVQSYNVQVATTDYNQFAMVFFRKTSENKQYFKITLYGRTKELSPELKERFTRFAKSLGLKDDNIIFSVPTDQCIDN
modifications: iron-free enterochelin siderophore
notes: recombinant mouse lipocalin 2 mixed with iron-unloaded bacterial siderophore enterochelin
Q: How did the “rank order of effect on R cell epithelial morphology and E-cadherin expression” value (E-cadherin [1]) turn out when B3 was run?
A: Lipo:Sid:Fe>Lipo:Sid>Lipo
